10 molecules from ChEMBL document CHEMBL1150266, “Design and synthesis of conformationally constrained glucagon-like peptide-1 derivatives with increased plasma stability and prolonged in vivo activity” (J Med Chem, 2008) can be followed below.

The target in series [1] is T1, Glucagon-like peptide 1 receptor (Homo sapiens, UniProt P43220). Nature of the series: Displacement of [125I]GLP1 from human GLP1R expressed in CHOK1 cells. The class given is cell-based, CHO-K1. A general note: Loss of bound radioactivity is the signal in a displacement assay; it reports binding, not function.
Series [2] concerns Plasma. Kind of series: Stability in human plasma at 1000 ng/mL at 37 degC. The class given is ADME, cell-free.
In series [3] the target is T1, Glucagon-like peptide 1 receptor. Kind of series: Agonist activity at human GLP1R expressed in CHO cells assessed as increase in cAMP level by cAMP-response element/luciferase activation assay. The class given is functional, cell-based. In general terms: cAMP levels reflect the balance of adenylyl cyclase and phosphodiesterase activity.

One may read the IC50 as the concentration at which inhibition is half-maximal. A word on the EC50: it is the midpoint of the concentration-response curve.

Where a SMILES comes first, the peptide text is derived from it. Bridges are numbered along the chain shown (N, C = ends). [ ]: non-standard residue; d: D form. Phe(4-COOH) = N[C@@H](Cc1ccc(C(=O)O)cc1)C(=O)O Some results are limits rather than exact numbers.

T1 sequence (P43220 whole entry): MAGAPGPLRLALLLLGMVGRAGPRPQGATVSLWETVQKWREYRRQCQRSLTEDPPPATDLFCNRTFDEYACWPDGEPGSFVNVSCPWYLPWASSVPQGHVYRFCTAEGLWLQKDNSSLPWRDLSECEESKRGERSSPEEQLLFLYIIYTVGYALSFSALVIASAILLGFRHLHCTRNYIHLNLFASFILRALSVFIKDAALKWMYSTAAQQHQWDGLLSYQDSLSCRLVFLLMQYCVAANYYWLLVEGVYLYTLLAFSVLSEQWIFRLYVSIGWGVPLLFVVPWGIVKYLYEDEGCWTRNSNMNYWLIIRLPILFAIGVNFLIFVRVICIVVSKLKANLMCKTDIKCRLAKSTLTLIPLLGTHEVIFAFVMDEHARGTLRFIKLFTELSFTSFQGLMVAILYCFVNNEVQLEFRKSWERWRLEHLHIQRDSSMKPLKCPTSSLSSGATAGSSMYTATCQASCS

Regarding `CC[C@H](C)[C@H](NC(=O)[C@H](Cc1ccccc1)NC(=O)[C@H](CCC(=O)O)NC(=O)[C@H](CCCCN)NC(=O)[C@H](C)NC(=O)[C@H](C)NC(=O)[C@H](CCC(N)=O)NC(=O)C(C)(C)NC(=O)[C@H](CCC(=O)O)NC(=O)[C@H](CC(C)C)NC(=O)[C@H](Cc1ccc(O)cc1)NC(=O)[C@H](CO)NC(=O)[C@H](CO)NC(=O)[C@@H](NC(=O)[C@H](CC(=O)O)NC(=O)[C@H](CO)NC(=O)[C@@H](NC(=O)[C@H](Cc1ccccc1)NC(=O)[C@@H](NC(=O)CNC(=O)[C@H](CCC(=O)O)NC(=O)CNC(=O)[C@@H](N)Cc1c[nH]cn1)[C@@H](C)O)[C@@H](C)O)C(C)C)C(=O)N[C@@H](C)C(=O)N[C@@H](Cc1c[nH]c2ccccc12)C(=O)N[C@@H](CC(C)C)C(=O)N[C@H](C(=O)N[C@@H](CCCCN)C(=O)NCC(=O)N[C@@H](CCCNC(=N)N)C(=O)NCC(N)=O)C(C)C`, in series [1], the concentration for half-maximal inhibition (IC50) was found to be 2.9 nM. In addition, the Stability result in series [2] is listed as “Stable”.
For the molecule `CC[C@H](C)[C@@H]1NC(=O)[C@H](Cc2ccccc2)NC(=O)[C@H](CCC(=O)O)NC(=O)[C@@H](NC(=O)[C@H](C)NC(=O)[C@H](C)NC(=O)[C@H](CCC(N)=O)NC(=O)CNC(=O)[C@H](CCC(=O)O)NC(=O)[C@H](CC(C)C)NC(=O)[C@H](Cc2ccc(O)cc2)NC(=O)[C@H](CO)NC(=O)[C@H](CO)NC(=O)[C@@H](NC(=O)[C@H](CC(=O)O)NC(=O)[C@H](CO)NC(=O)[C@@H](NC(=O)[C@H](Cc2ccccc2)NC(=O)[C@@H](NC(=O)CNC(=O)[C@H](CCC(=O)O)NC(=O)CNC(=O)[C@@H](N)Cc2cnc[nH]2)[C@@H](C)O)[C@@H](C)O)C(C)C)CCC(=O)NCCCC[C@@H](C(=O)N[C@@H](Cc2c[nH]c3ccccc23)C(=O)N[C@@H](CC(C)C)C(=O)N[C@H](C(=O)N[C@@H](CCCCN)C(=O)NCC(=O)N[C@@H](CCCNC(=N)N)C(=O)NCC(N)=O)C(C)C)NC1=O`, the half-inhibitory concentration (IC50) in series [1] came out at 16 nM. Also, the EC50 in series [3] came to 0.024 nM.
For `CC[C@H](C)[C@H](NC(=O)[C@H](Cc1ccccc1)NC(=O)[C@H](CCC(=O)O)NC(=O)[C@@H]1CCCCNC(=O)CC[C@H](NC(=O)[C@H](CCC(=O)O)NC(=O)[C@H](CC(C)C)NC(=O)[C@H](Cc2ccc(O)cc2)NC(=O)[C@H](CO)NC(=O)[C@H](CO)NC(=O)[C@@H](NC(=O)[C@H](CC(=O)O)NC(=O)[C@H](CO)NC(=O)[C@@H](NC(=O)[C@H](Cc2ccccc2)NC(=O)[C@@H](NC(=O)CNC(=O)[C@H](CCC(=O)O)NC(=O)CNC(=O)[C@@H](N)Cc2c[nH]cn2)[C@@H](C)O)[C@@H](C)O)C(C)C)CC(=O)N[C@@H](CCC(N)=O)C(=O)N[C@@H](C)C(=O)N[C@@H](C)C(=O)N1)C(=O)N[C@@H](C)C(=O)N[C@@H](Cc1c[nH]c2ccccc12)C(=O)N[C@@H](CC(C)C)C(=O)N[C@H](C(=O)N[C@@H](CCCCN)C(=O)NCC(=O)N[C@@H](CCCNC(=N)N)C(=O)NCC(N)=O)C(C)C`, in that order: > 500 nM and 1.8 nM.
In the case of `CC[C@H](C)[C@H](NC(=O)[C@H](Cc1ccccc1)NC(=O)[C@H](CCC(=O)O)NC(=O)[C@@H]1CCCCNC(=O)CCC[C@H](NC(=O)[C@H](CCC(=O)O)NC(=O)[C@H](CC(C)C)NC(=O)[C@H](Cc2ccc(O)cc2)NC(=O)[C@H](CO)NC(=O)[C@H](CO)NC(=O)[C@@H](NC(=O)[C@H](CC(=O)O)NC(=O)[C@H](CO)NC(=O)[C@@H](NC(=O)[C@H](Cc2ccccc2)NC(=O)[C@@H](NC(=O)CNC(=O)[C@H](CCC(=O)O)NC(=O)CNC(=O)[C@@H](N)Cc2c[nH]cn2)[C@@H](C)O)[C@@H](C)O)C(C)C)C(=O)N[C@@H](CCC(N)=O)C(=O)N[C@@H](C)C(=O)N[C@@H](C)C(=O)N1)C(=O)N[C@@H](C)C(=O)N[C@@H](Cc1c[nH]c2ccccc12)C(=O)N[C@@H](CC(C)C)C(=O)N[C@H](C(=O)N[C@@H](CCCCN)C(=O)NCC(=O)N[C@@H](CCCNC(=N)N)C(=O)NCC(N)=O)C(C)C`, the IC50 in series [1] was determined as 6.2 nM. Besides, in series [3], the 50% effective concentration (EC50) amounted to 0.004 nM.
With `CC[C@H](C)[C@H](NC(=O)[C@H](Cc1ccccc1)NC(=O)[C@H](CCC(=O)O)NC(=O)[C@H](CCCCN)NC(=O)[C@H](C)NC(=O)[C@H](C)NC(=O)[C@H](CCC(N)=O)NC(=O)[C@@H]1CCCCNC(=O)CC[C@H](NC(=O)[C@H](CO)NC(=O)[C@@H](NC(=O)[C@H](CC(=O)O)NC(=O)[C@H](CO)NC(=O)[C@@H](NC(=O)[C@H](Cc2ccccc2)NC(=O)[C@@H](NC(=O)CNC(=O)[C@H](CCC(=O)O)NC(=O)CNC(=O)[C@@H](N)Cc2cnc[nH]2)[C@@H](C)O)[C@@H](C)O)C(C)C)C(=O)N[C@@H](Cc2ccc(O)cc2)C(=O)N[C@@H](CC(C)C)C(=O)N[C@@H](CCC(=O)O)C(=O)N1)C(=O)N[C@@H](C)C(=O)N[C@@H](Cc1c[nH]c2ccccc12)C(=O)N[C@@H](CC(C)C)C(=O)N[C@H](C(=O)N[C@@H](CCCCN)C(=O)NCC(=O)N[C@@H](CCCNC(=N)N)C(=O)NCC(N)=O)C(C)C` (H-HGEGTFTSDVSEYLEKQAAKEFIAWLVKGRG-NH2; lactam 12-16), the IC50 in series [1] stood at 3.6 nM. Besides, the EC50 in series [3] was 0.006 nM. For the same molecule, the Stability result in series [2] is “Stable”.
For the molecule `CC[C@H](C)[C@H](NC(=O)[C@H](Cc1ccccc1)NC(=O)[C@H](CCC(=O)O)NC(=O)[C@H](CCCCN)NC(=O)[C@H](C)NC(=O)[C@H](C)NC(=O)[C@@H]1CCCCNC(=O)CC[C@H](NC(=O)[C@H](CO)NC(=O)[C@H](CO)NC(=O)[C@@H](NC(=O)[C@H](CC(=O)O)NC(=O)[C@H](CO)NC(=O)[C@@H](NC(=O)[C@H](Cc2ccccc2)NC(=O)[C@@H](NC(=O)CNC(=O)[C@H](CCC(=O)O)NC(=O)CNC(=O)[C@@H](N)Cc2c[nH]cn2)[C@@H](C)O)[C@@H](C)O)C(C)C)C(=O)N[C@@H](CC(C)C)C(=O)N[C@@H](CCC(=O)O)C(=O)NCC(=O)N1)C(=O)N[C@@H](C)C(=O)N[C@@H](Cc1c[nH]c2ccccc12)C(=O)N[C@@H](CC(C)C)C(=O)N[C@H](C(=O)N[C@@H](CCCCN)C(=O)NCC(=O)N[C@@H](CCCNC(=N)N)C(=O)NCC(N)=O)C(C)C` (H-HGEGTFTSDVSSELEGKAAKEFIAWLVKGRG-NH2; lactam 13-17), in series [1], the IC50 is 17 nM. Also, the EC50 in series [3] is 0.077 nM.
`CC[C@H](C)[C@H](NC(=O)[C@H](Cc1ccccc1)NC(=O)[C@H](CCC(=O)O)NC(=O)[C@@H]1CCCCNC(=O)C[C@H](NC(=O)[C@H](CCC(=O)O)NC(=O)[C@H](CC(C)C)NC(=O)[C@H](Cc2ccc(O)cc2)NC(=O)[C@H](CO)NC(=O)[C@H](CO)NC(=O)[C@@H](NC(=O)[C@H](CC(=O)O)NC(=O)[C@H](CO)NC(=O)[C@@H](NC(=O)[C@H](Cc2ccccc2)NC(=O)[C@@H](NC(=O)CNC(=O)[C@H](CCC(=O)O)NC(=O)CNC(=O)[C@@H](N)Cc2c[nH]cn2)[C@@H](C)O)[C@@H](C)O)C(C)C)C(=O)N[C@@H](CCC(N)=O)C(=O)N[C@@H](C)C(=O)N[C@@H](C)C(=O)N1)C(=O)N[C@@H](C)C(=O)N[C@@H](Cc1c[nH]c2ccccc12)C(=O)N[C@@H](CC(C)C)C(=O)N[C@H](C(=O)N[C@@H](CCCCN)C(=O)NCC(=O)N[C@@H](CCCNC(=N)N)C(=O)NCC(N)=O)C(C)C` (H-HGEGTFTSDVSSYLEDQAAKEFIAWLVKGRG-NH2; lactam 16-20): in series [1], the IC50 came to 64 nM. Moreover, in series [3], the 50% effective concentration (EC50) came out at 0.14 nM.
Regarding `CC(C)C[C@H](NC(=O)[C@H](Cc1ccc(O)cc1)NC(=O)[C@H](CO)NC(=O)[C@H](CO)NC(=O)[C@@H](NC(=O)[C@H](CC(=O)O)NC(=O)[C@H](CO)NC(=O)[C@@H](NC(=O)[C@H](Cc1ccccc1)NC(=O)[C@@H](NC(=O)CNC(=O)[C@H](CCC(=O)O)NC(=O)CNC(=O)[C@@H](N)Cc1c[nH]cn1)[C@@H](C)O)[C@@H](C)O)C(C)C)C(=O)N[C@@H](CCC(=O)O)C(=O)NCC(=O)N[C@@H](CCC(N)=O)C(=O)N[C@@H](C)C(=O)N[C@H]1CCC(=O)NCCCC[C@@H](C(=O)N[C@@H](C)C(=O)N[C@@H](Cc2c[nH]c3ccccc23)C(=O)N[C@@H](CC(C)C)C(=O)N[C@H](C(=O)N[C@@H](CCCCN)C(=O)NCC(=O)N[C@@H](CCCNC(=N)N)C(=O)NCC(N)=O)C(C)C)NC(=O)[C@H](Cc2ccccc2)NC(=O)[C@H](CCC(=O)O)NC(=O)[C@H](CCCCN)NC1=O` (H-HGEGTFTSDVSSYLEGQAEKEFKAWLVKGRG-NH2; lactam 19-23), the 50% inhibitory concentration (IC50) in series [1] is > 1000 nM. Further, the EC50 in series [3] came out at 15 nM.
The like results for `CC[C@H](C)[C@H](NC(=O)[C@H](Cc1ccccc1)NC(=O)[C@H](CCC(=O)O)NC(=O)[C@@H]1CCC(=O)NCCCC[C@H](NC(=O)[C@H](CCC(=O)O)NC(=O)[C@H](CC(C)C)NC(=O)[C@H](Cc2ccc(O)cc2)NC(=O)[C@H](CO)NC(=O)[C@H](CO)NC(=O)[C@@H](NC(=O)[C@H](CC(=O)O)NC(=O)[C@H](CO)NC(=O)[C@@H](NC(=O)[C@H](Cc2ccccc2)NC(=O)[C@@H](NC(=O)CNC(=O)[C@H](CCC(=O)O)NC(=O)CNC(=O)[C@@H](N)Cc2c[nH]cn2)[C@@H](C)O)[C@@H](C)O)C(C)C)C(=O)N[C@@H](CCC(N)=O)C(=O)N[C@@H](C)C(=O)N[C@@H](C)C(=O)N1)C(=O)N[C@@H](C)C(=O)N[C@@H](Cc1c[nH]c2ccccc12)C(=O)N[C@@H](CC(C)C)C(=O)N[C@H](C(=O)N[C@@H](CCCCN)C(=O)NCC(=O)N[C@@H](CCCNC(=N)N)C(=O)NCC(N)=O)C(C)C` (H-HGEGTFTSDVSSYLEKQAAEEFIAWLVKGRG-NH2; lactam 16-20) were, in that order, 2.7 nM and 0.008 nM.
As for `CC[C@H](C)[C@H](NC(=O)[C@H](Cc1ccccc1)NC(=O)[C@H](CCC(=O)O)NC(=O)[C@@H]1CCCCNC(=O)c2ccc(cc2)C[C@H](NC(=O)[C@H](CO)NC(=O)[C@H](CO)NC(=O)[C@@H](NC(=O)[C@H](CC(=O)O)NC(=O)[C@H](CO)NC(=O)[C@@H](NC(=O)[C@H](Cc2ccccc2)NC(=O)[C@@H](NC(=O)CNC(=O)[C@H](CCC(=O)O)NC(=O)CNC(=O)[C@@H](N)Cc2c[nH]cn2)[C@@H](C)O)[C@@H](C)O)C(C)C)C(=O)N[C@@H](CC(C)C)C(=O)N[C@@H](CCC(=O)O)C(=O)NCC(=O)N[C@@H](CCC(N)=O)C(=O)N[C@@H](C)C(=O)N[C@@H](C)C(=O)N1)C(=O)N[C@@H](C)C(=O)N[C@@H](Cc1c[nH]c2ccccc12)C(=O)N[C@@H](CC(C)C)C(=O)N[C@H](C(=O)N[C@@H](CCCCN)C(=O)NCC(=O)N[C@@H](CCCNC(=N)N)C(=O)NCC(N)=O)C(C)C` (H-HGEGTFTSDVSS[Phe(4-COOH)]LEGQAAKEFIAWLVKGRG-NH2; lactam 13-20), in series [1], the IC50 amounted to 2000 nM. Moreover, the EC50 in series [3] was 9 nM.
